Experimental data from patent publication US5945436A, “Pyridylmethyl nitriles, amides and thioamides useful as fungicides” (Uniroyal Chemical Company, Inc., priority 1997, dated 1999).

Legend:
Erysiphe graminis [1] = assay: Powdery mildew of barley, systemic root uptake (BMS); type: in vivo; settings: 45 ml of 250 mg/l, 8 days after inoculation
Outline: (§1)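 Pot soil of barley (BMS) and cucumber (CMS) plants was drenched with 45 ml of a 250 mg/l acetone/Tween 20 aqueous emulsion, with untreated plants as controls. Disease was scored on a rating scale that included intermediate grades.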

Erysiphe cichoracearum = assay: Powdery mildew of cucumber, systemic root uptake (CMS); type: in vivo; settings: 45 ml of 250 mg/l, 8 days after inoculation
Outline: as §1

Erysiphe graminis [2] = assay: Powdery mildew in barley, foliar application (ERY GRA); type: in vivo; settings: foliar, 1,000 mg/l, 8 days after inoculation; for pest or weed control at 1000 µg/mL: Blumeria graminis, foliar, 192 h, read-out: Percent Reduction of Disease, ERY GRA
Outline: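 'Robust' barley plants sprayed with acetone/TWEEN 20 aqueous emulsion at 1,000 mg/l, dried, then kept at 21° C in a greenhouse. Inoculated by distributing Erysiphe graminis spores from infected plants. Percent control computed from disease scores vs unsprayed control pots.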

Helminthosporium sativum = assay: Barley spot blotch, foliar treatment (HEL SAT); type: in vivo; settings: foliar, 1,000 mg/l; for pest or weed control at 1000 µg/mL: Helminthosporium, foliar, 216 h, read-out: Percent Reduction of Disease, HEL SAT
Outline: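 Percent control of H. sativum blotch was computed after foliar spraying of six-day-old "Robust" barley (10 plants/pot) at 1,000 mg/l versus unsprayed pots. Spore inoculation followed spraying, then 24 h in a 99% humidity chamber and eight days in a 21° C greenhouse.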

[3] = system: Cercosporidium personatum; assay: Fungal germination and growth, treated disc on agar, scored (CER PER); type: cell-based; design: key: 100: Complete inhibition of germination and growth.; 80: Nearly complete inhibition but some growth.; 50: Partial inhibition of growth or, early complete inhibition but later growth begins.; 20: Some inhibition of growth, but not significant.; 0: No inhibition of growth; settings: disc dipped in 500 mg/l, 29° C., numerical score 0-100, spore suspension
Outline: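 Scoring ran from 100, complete inhibition of germination and growth, down to 0, none, after incubation at 29° C. Filter discs (11 mm) soaked in test solution and air-dried to remove acetone were set on agar and inoculated with spores (20,000 spores/ml, two drops each); untreated discs served as controls.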

Scierotinia minor = assay: Fungal growth inhibition, treated disc on agar (SCL MIN); type: cell-based; settings: disc dipped in 500 mg/l, 29° C.; for inhibition at 500 µg/mL: read-out: Percent Growth Inhibition, SCL MIN
From the text: Filter paper discs, each 11 mm. in diameter, were dipped in each of the test solutions. The discs were allowed to air dry to drive off the acetone solvent. A number of untreated discs were used as controls.
The treated and untreated discs were then placed on agar plates and one of the following fungus species: Septoria nodorum (SEP NOD), Botrytis cinerea (BOT CIN), Fusarium oxysporum (FUS OXY), Pythium ultimum (PYT ULT), Rhizoctonia solani (RHI SOL), Colletotrichum gossypii (COL GOS), and Scierotinia minor (SCL MIN), was added to the center of each disc in the form of a culture plug with the fungus mat in contact with the paper of the test disc. Cercosporidium personatum (CER PER), was added to discs as a spore suspension (20,000 spores/ml) to the disc (two drops of spore suspension per disc), rather than a mycelial culture plug. The plates were then incubated at 29° C. in an oven.
With the exception of the discs containing Cercosporidium personatum, the discs were evaluated by first measuring the radius from the center of the fungus colony on the treated discs and on the untreated discs. Percent growth inhibition of each of the compounds tested was determined as a function of the difference between the radius of the fungus colony on the treated disc versus the radius of the fungus colony on the untreated disc.

Rhizoctonia solani = assay: Fungal growth inhibition, treated disc on agar (RHI SOL); type: cell-based; settings: disc dipped in 500 mg/l, 29° C.; for inhibition at 500 µg/mL: Rhizoctonia solani, read-out: Percent Growth Inhibition, RHI SOL
Botrytis cinerea = assay: Fungal growth inhibition, treated disc on agar (BOT CIN); type: cell-based; settings: disc dipped in 500 mg/l, 29° C.; for inhibition at 500 µg/mL: Botrytis cinerea, read-out: Percent Growth Inhibition, BOT CIN
Fusarium oxysporum = assay: Fungal growth inhibition, treated disc on agar (FUS OXY); type: cell-based; settings: disc dipped in 500 mg/l, 29° C.; for inhibition at 500 µg/mL: Fusarium oxysporum, read-out: Percent Growth Inhibition, FUS OXY

| Structure (SMILES) | Percent Reduction of Disease, BMS (Erysiphe graminis [1]) [%] | Percent Reduction of Disease, CMS (Erysiphe cichoracearum) [%] | Percent Reduction of Disease, ERY GRA (Erysiphe graminis [2]) [%] | Percent Reduction of Disease, HEL SAT (Helminthosporium sativum) [%] | CER PER inhibition score [3] | Percent Growth Inhibition, SCL MIN (Scierotinia minor) [%] | Percent Growth Inhibition, RHI SOL (Rhizoctonia solani) [%] | Percent Growth Inhibition, BOT CIN (Botrytis cinerea) [%] | Percent Growth Inhibition, FUS OXY (Fusarium oxysporum) [%] | pest or weed control at 1000 µg/mL (Erysiphe graminis [2]) [%] | pest or weed control at 1000 µg/mL (Helminthosporium sativum) [%] | inhibition at 500 µg/mL (Scierotinia minor) [%] | inhibition at 500 µg/mL (Rhizoctonia solani) [%] | inhibition at 500 µg/mL (Botrytis cinerea) [%] | inhibition at 500 µg/mL (Fusarium oxysporum) [%] |
| --- | --- | --- | --- | --- | --- | --- | --- | --- | --- | --- | --- | --- | --- | --- | --- |
| CCCCC(C#N)(CCc1ccc(OCCC)cc1)c1cccnc1 (stereo not drawn) [Compound 69] | 0 | 20 | 50 | 85 | 0 | 100 | 5 | 70 | 30 |  |  |  |  |  |  |
| C=CCC(C#N)(CCCc1ccccc1OC)c1cccnc1 (stereo not drawn) [Compound 70] | 40 | 0 |  |  | 100 |  |  |  |  | 92 | 100 | 100 | 28 | 100 | 25 |
| CCCC(C#N)(CCCc1ccccc1OC)c1cccnc1 (stereo not drawn) [Compound 71] | 100 | 80 |  |  | 100 |  |  |  |  | 100 | 100 | 100 | 6 | 100 | 72 |
| CCCC(C#N)(CCc1ccccc1C(F)(F)F)c1cccnc1 (stereo not drawn) [Compound 72] | 90 | 80 |  |  | 0 |  |  |  |  | 100 | 83 | 100 | 38 | 100 | 16 |
| CCCCC(C#N)(CCc1ccccc1C(F)(F)F)c1cccnc1 (stereo not drawn) [Compound 73] | 100 | 0 |  |  | 0 |  |  |  |  | 100 | 100 | 100 | 34 | 100 | 75 |
| CCCCC(C#N)(CCc1ccccc1F)c1cccnc1 (stereo not drawn) [Compound 74] | 100 | 80 |  |  | 0 |  |  |  |  | 100 | 100 | 100 | 100 | 100 | 3 |
| CCCC(C#N)(CCc1ccccc1F)c1cccnc1 (stereo not drawn) [Compound 75] | 100 | 0 |  |  | 0 |  |  |  |  | 92 | 92 | 92 | 100 | 100 | 100 |
| CCCCC(C#N)(CCCc1ccc(OC)cc1)c1cccnc1 (stereo not drawn) [Compound 76] | 0 | 0 |  |  | 100 |  |  |  |  | 100 | 100 | 100 | 6 | 100 | 50 |
| N#CC(CCc1ccc(F)cc1)(CCC(F)(F)F)c1cccnc1 (stereo not drawn) [Compound 77] | 100 | 100 |  |  | 0 |  |  |  |  | 90 | 90 | 40 | 40 | 65 | 55 |
| N#CC(CCCC(F)(F)F)(CCc1ccc(F)cc1)c1cccnc1 (stereo not drawn) [Compound 78] | 100 | 92 |  |  | 0 |  |  |  |  | 100 | 83 | 20 | 0 | 34 | 40 |
| Cc1ccc(CCC(C#N)(CCCC(F)(F)F)c2cccnc2)cc1 (stereo not drawn) [Compound 79] | 92 | 92 |  |  | 0 |  |  |  |  | 100 | 100 | 5 | 35 | 0 | 46 |
| Cc1ccc(CCC(C#N)(CCC(F)(F)F)c2cccnc2)cc1 (stereo not drawn) [Compound 80] | 100 | 92 |  |  | 0 |  |  |  |  | 100 | 100 | 5 | 62 | 9 | 24 |
